Where “and” joins values, the source holds several entries; their conditions need not be identical. Equal entries are not always repeated. Inconclusive results and toxic doses are left out. Rule as the data show it: active = T/C of 150% or more; inactive = T/C below 125%.
System: L1210 leukemia ip in BDF1 mice, survival T/C
Assay: NCI In Vivo Anticancer Drug Screen. Data for tumor model L1210 Leukemia (intraperitoneal) in B6D2F1 (BDF1) mice
Settings: endpoint: mean survival time, higher = longer survival
How it was run: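 Mice bearing the transplanted tumor received compound or vehicle. Survival of the treated group was divided by that of the vehicle-treated control group to give the ratio.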

[1] = dose: 100.0 mg/kg/injection, schedule: Q04DX002 (ip), vehicle: Klucel (hydroxypropylcellulose) (HPC)
[2] = dose: 200.0 mg/kg/injection, schedule: Q04DX002 (ip), vehicle: Klucel (hydroxypropylcellulose) (HPC)
[3] = dose: 400.0 mg/kg/injection, schedule: Q04DX002 (ip), vehicle: Klucel (hydroxypropylcellulose) (HPC)
[4] = dose: 100.0 mg/kg/injection, schedule: Q01DX009 (ip), vehicle: saline with Tween-80
[5] = dose: 100.0 mg/kg/injection, schedule: Q04DX003 (ip), vehicle: saline with Tween-80
[6] = dose: 200.0 mg/kg/injection, schedule: Q01DX009 (ip), vehicle: saline with Tween-80
[7] = dose: 200.0 mg/kg/injection, schedule: Q04DX003 (ip), vehicle: saline with Tween-80
[8] = dose: 100.0 mg/kg/injection, schedule: Q01DX001 (ip), vehicle: carboxymethylcellulose (CMC)
[9] = dose: 200.0 mg/kg/injection, schedule: Q01DX001 (ip), vehicle: carboxymethylcellulose (CMC)
[10] = dose: 400.0 mg/kg/injection, schedule: Q01DX001 (ip), vehicle: carboxymethylcellulose (CMC)
[11] = dose: 100.0 mg/kg/injection, schedule: Q01DX009 (ip), vehicle: Klucel (hydroxypropylcellulose) (HPC)
[12] = dose: 100.0 mg/kg/injection, schedule: Q04DX003 (ip), vehicle: Klucel (hydroxypropylcellulose) (HPC)
[13] = dose: 200.0 mg/kg/injection, schedule: Q01DX009 (ip), vehicle: Klucel (hydroxypropylcellulose) (HPC)
[14] = dose: 200.0 mg/kg/injection, schedule: Q04DX003 (ip), vehicle: Klucel (hydroxypropylcellulose) (HPC)
[15] = dose: 400.0 mg/kg/injection, schedule: Q01DX009 (ip), vehicle: Klucel (hydroxypropylcellulose) (HPC)
[16] = dose: 400.0 mg/kg/injection, schedule: Q04DX003 (ip), vehicle: Klucel (hydroxypropylcellulose) (HPC)
[17] = dose: 100.0 mg/kg/injection, schedule: Q01DX001 (ip), vehicle: saline
[18] = dose: 200.0 mg/kg/injection, schedule: Q01DX001 (ip), vehicle: saline
[19] = dose: 400.0 mg/kg/injection, schedule: Q01DX001 (ip), vehicle: saline
[20] = dose: 100.0 mg/kg/injection, schedule: Q01DX001 (ip), vehicle: Klucel (hydroxypropylcellulose) (HPC)
[21] = dose: 200.0 mg/kg/injection, schedule: Q01DX001 (ip), vehicle: Klucel (hydroxypropylcellulose) (HPC)
[22] = dose: 50.0 mg/kg/injection, schedule: Q01DX009 (ip), vehicle: saline with Tween-80
[23] = dose: 50.0 mg/kg/injection, schedule: Q01DX001 (ip), vehicle: saline

Measured: T/C

CCN(CC)CCOc1ccccc1C
inactive: dose: 20.0 mg/kg/injection, schedule: Q01DX009 (ip), vehicle: saline 90 % of control | dose: 40.0 mg/kg/injection, schedule: Q01DX009 (ip), vehicle: saline 88 % of control | dose: 40.0 mg/kg/injection, schedule: Q04DX003 (ip), vehicle: saline 106 % of control | dose: 80.0 mg/kg/injection, schedule: Q01DX009 (ip), vehicle: saline 89 % of control | dose: 80.0 mg/kg/injection, schedule: Q04DX003 (ip), vehicle: saline 100 % of control

O=C(/C=C/c1ccccc1)OCc1ccccc1CN1CCCCC1
inactive: [1] 104 % of control | [2] 96 % of control | [3] 86 % of control

COc1ccc(CC(=O)Cc2ccc(OC)c(OC)c2)cc1OC
inactive: [4] 93 % of control | [5] 100 % of control | [6] 98 % of control | [7] 108 % of control | dose: 400.0 mg/kg/injection, schedule: Q01DX009 (ip), vehicle: saline with Tween-80 102 % of control | dose: 400.0 mg/kg/injection, schedule: Q04DX003 (ip), vehicle: saline with Tween-80 100 % of control

COc1ccc(C(=O)O)nc1C
inactive: dose: 75.0 mg/kg/injection, schedule: Q01DX001 (ip), vehicle: acetone 98 % of control | dose: 150.0 mg/kg/injection, schedule: Q01DX001 (ip), vehicle: acetone 101 % of control | dose: 300.0 mg/kg/injection, schedule: Q01DX001 (ip), vehicle: acetone 98 % of control

Cc1cc(N(CCCl)CCCl)ccc1C=Nc1ccc(-c2csc(-c3ccccc3)n2)cc1
inactive: dose: 50.0 mg/kg/injection, schedule: Q01DX001 (ip), vehicle: carboxymethylcellulose (CMC) 103 % of control | [8] 94 % of control | [9] 97 % of control | [10] 100 % of control

CCOC(=O)CCC1C(C#N)C2(Cl)C(Cl)=C(Cl)C1(Cl)C2(Cl)Cl (stereo unspecified)
inactive: [11] 98 % of control | [12] 93 % of control | [13] 98 % of control | [14] 93 % of control | [15] 96 % of control | [16] 92 % of control

CC(=O)Oc1ccccc1[N+](=O)[O-]
inactive: [11] 106 % of control | [13] 91 % of control

Oc1ccc(Br)cc1/C=N/N1CCN(/N=C/c2cc(Br)ccc2O)CC1
inactive: [17] 96 % of control | [18] 92 % of control | [19] 90 % of control

Cc1ccc(C(=O)CCCCCC(=O)c2ccc(C)cc2O)c(O)c1
inactive: [20] 98 % of control | [21] 98 % of control | dose: 400.0 mg/kg/injection, schedule: Q01DX001 (ip), vehicle: Klucel (hydroxypropylcellulose) (HPC) 95 % of control

CC(C)NC(N)=O
inactive: dose: 87.5 mg/kg/injection, schedule: Q01DX009 (ip), vehicle: saline 101 % of control | dose: 175.0 mg/kg/injection, schedule: Q01DX009 (ip), vehicle: saline 101 % of control | dose: 350.0 mg/kg/injection, schedule: Q01DX009 (ip), vehicle: saline 101 % of control

Cc1ccc2ccccc2c1N(CC(=O)O)S(=O)(=O)c1ccccc1 (tested in a mixture with another compound)
inactive: dose: 100.0 mg/kg/injection, schedule: Q04DX003 (ip), vehicle: saline sonified 94 % of control | dose: 200.0 mg/kg/injection, schedule: Q04DX003 (ip), vehicle: saline sonified 94 % of control | dose: 400.0 mg/kg/injection, schedule: Q04DX003 (ip), vehicle: saline sonified 112 % of control

c1ccc2c(CN3CCCCC3)c[nH]c2c1
inactive: [22] 108 % of control | [4] 88 % of control | [5] 93 % of control | [7] 88 % of control

CCOC(=N)c1ccc(P(=O)(O)O)cc1
inactive: dose: 75.0 mg/kg/injection, schedule: Q01DX001 (ip), vehicle: saline 97 % of control | dose: 150.0 mg/kg/injection, schedule: Q01DX001 (ip), vehicle: saline 96 % of control | dose: 300.0 mg/kg/injection, schedule: Q01DX001 (ip), vehicle: saline 102 % of control

O=C(NC(Cc1ccccc1)C(=O)N1CCCCC1)c1ccccc1 (stereo unspecified)
inactive: [8] 101 % of control | [9] 92 % of control | [10] 90 % of control

CCNCCCOCC
inactive: dose: 50.0 mg/kg/injection, schedule: Q01DX009 (ip), vehicle: saline 91 % of control | dose: 100.0 mg/kg/injection, schedule: Q04DX003 (ip), vehicle: saline 103 % of control | dose: 200.0 mg/kg/injection, schedule: Q04DX003 (ip), vehicle: saline 95 % of control

COC(=O)N/N=C/c1ccccc1Cl
inactive: [11] 108 % of control | [1] 93 % of control | [13] 121 % of control | [2] 104 % of control | [3] 96 % of control

OC[CH2][Sb]([Cl])([Cl])([c]1ccccc1)[c]1ccccc1
inactive: dose: 5.0 mg/kg/injection, schedule: Q04DX002 (ip), vehicle: saline with Tween-80 97 % of control | dose: 10.0 mg/kg/injection, schedule: Q04DX002 (ip), vehicle: saline with Tween-80 101 % of control | dose: 20.0 mg/kg/injection, schedule: Q04DX002 (ip), vehicle: saline with Tween-80 101 % of control

CC(=O)Nc1cc2c(cc1CC(=O)O)OCO2
inactive: [23] 101 % of control | [17] 95 % of control | [18] 95 % of control | [19] 101 % of control

c1ccc(-c2cc(-c3ccccc3)c3c([o+]2)CCCCCCCCCCCC3)cc1
inactive: [22] 108 % of control | [4] 108 % of control | [6] 97 % of control

CC(CCc1ccc(OC(=O)c2ccccc2)cc1)OC(=O)c1ccccc1 (stereo unspecified)
inactive: [23] 101 % of control | [17] 95 % of control | [18] 98 % of control | [19] 95 % of control

CCCCCCn1c(O)c(C=N)c(=O)[nH]c1=O
inactive: [11] 100 % of control | [12] 93 % of control | [13] 99 % of control | [14] 100 % of control | [15] 97 % of control | [16] 94 % of control

Cc1cccc2c(C)c3cccc[n+]3cc12
inactive: dose: 2.0 mg/kg/injection, schedule: Q01DX Z (ip), vehicle: carboxymethylcellulose (CMC) 113 % of control | dose: 4.0 mg/kg/injection, schedule: Q01DX Z (ip), vehicle: carboxymethylcellulose (CMC) 110 % of control | dose: 8.0 mg/kg/injection, schedule: Q01DX Z (ip), vehicle: carboxymethylcellulose (CMC) 113 % of control and 123 % of control | dose: 16.0 mg/kg/injection, schedule: Q01DX Z (ip), vehicle: carboxymethylcellulose (CMC) 115 % of control and 119 % of control

COc1ccc(-n2c(=O)c(N=Nc3ccc(Br)cc3)c(O)n(-c3ccc(I)cc3)c2=S)cc1
inactive: dose: 50.0 mg/kg/injection, schedule: Q01DX001 (ip), vehicle: Klucel (hydroxypropylcellulose) (HPC) 103 % of control | [20] 100 % of control | [21] 91 % of control

— PubChem BioAssay AID248 (DTP/NCI, 2004)
